Measurements reported in patent US6028198A (priority 1993, dated 2000).

Tests used:
[1] = parameters: species or system human (volunteers); settings: in vivo
[2] = in vivo
[3] = parameters: species or system human (volunteers); settings: in vivo; remark: listed apart in the source
[4] = mouse, in vivo
[5] = mouse, in vivo; remark: listed apart in the source
[6] = parameters: species or system human; settings: in vivo
[7] = parameters: species or system domestic cat; settings: in vivo; for Equivalent dose (ED50), preventing motion sickness-like syndrome in cats: cat, po
[8] = parameters: species or system human (sailor volunteers); settings: in vivo, po
[9] = parameters: species or system Japanese white rabbit; settings: rabbit, in vivo; for Equivalent dose (ED50), preventing adversive circling syndrome in rabbits: po
[10] = mouse, in vivo; remark: listed apart in the source
[11] = parameters: species or system human (medical worker volunteers); settings: in vivo, po

For `OC(CCCN1CCCCC1)(c1ccccc1)c1ccccc1` [Diphenidol], the “Effect on changes of electronystagmogram” value [1] was “obvious efficacy”, the “Nystagmus after rotation, postmedication” value ([1]; po) was 11.2 ± 6.2 degree/s and the “Nystagmus during rotation, postmedication” value ([1]; po) was 6.9 ± 3.4 degree/s. For the same compound, the Incidence of somnolence [2] was 18.7%, the “Effect on changes of electrogastrogram of body of stomach and gastric antrum” value [3] was “obvious efficacy” and the “Amplitude of electrogastrogram of antrum of stomach, postmedication” value ([3]; po) was 414 ± 265 μV. The “Amplitude of electrogastrogram of body of stomach, postmedication” value ([3]; po) was 396 ± 227 μV, the “C/A (ratio of ED50), mydriatic effect in mice” value [4] was 10.5 and the “C/A (ratio of ED50), inhibiting salivary secretion in mice” value [5] was 13.6. The “Total effective, significantly effective and ineffective rates compared with placebo” value [6] was “significantly different from those of the placebo group”, the “Equivalent dose (ED50), preventing motion sickness-like syndrome in cats” value [7] was 20.18 mg/kg and the “C/A (ratio of ED50 of diphenidol to that of the composition), motion sickness-like syndrome in cats” value [7] was 91.3. The “Ineffective rate, Ship” value [8] was 10.0%, the “Significantly effective rate, Ship” value [8] was 66.7% and the “Total effective rate, Ship” value [8] was 76.7%. For the same compound, the “C/A (ratio of ED50 of diphenidol to that of the composition), adversive circling in rabbits” value [9] was > 115, the “Equivalent dose (ED50), preventing adversive circling syndrome in rabbits” value [9] was > 50 mg/kg and the “C/A (ratio of ED50), potentiating sodium pentobarbital in mice” value [10] was 6.9. The “Ineffective rate, Bus” value [11] was 18.2%, the “Significantly effective rate, Bus” value [11] was 49.1% and the “Total effective rate, Bus” value [11] was 63.6%.
For `CN1[C@@H]2C[C@@H](OC(=O)[C@H](CO)c3ccccc3)C[C@H]1[C@@H]1O[C@@H]12` [Scopolamine], the “B/A (ratio of ED50), mydriatic effect in mice” value [4] was 0.072, the “B/A (ratio of ED50), inhibiting salivary secretion in mice” value [5] was 0.13 and the “Equivalent dose (ED50), preventing motion sickness-like syndrome in cats” value [7] was 0.059 mg/kg. For the same compound, the “B/A (ratio of ED50 of scopolamine to that of the composition), motion sickness-like syndrome in cats” value [7] was 0.30, the “B/A (ratio of ED50 of scopolamine to that of the composition), adversive circling in rabbits” value [9] was 0.30 and the “Equivalent dose (ED50), preventing adversive circling syndrome in rabbits” value [9] was 0.129 mg/kg. The “B/A (ratio of ED50), potentiating sodium pentobarbital in mice” value [10] was 0.24.
